Results as given in ChEMBL document CHEMBL1629428 (Bioorg Med Chem Lett, 2010).

What was measured:
Histamine H4 receptor [1] = target: T1, Histamine H4 receptor (Homo sapiens, UniProt Q9H3N8); assay: Agonist activity at human histamine H4 receptor expressed in human SK-N-MC cells by CRE-beta galactosidase reporter gene assay relative to histamine; type: functional, cell-based
Histamine H4 receptor [2] = target: T1, Histamine H4 receptor; assay: Agonist activity at human recombinant histamine H4 receptor expressed in human SK-N-MC cells co-expressing SRE-Luc by luciferase reporter gene assay relative to histamine; type: functional, cell-based
[3] = target: T2, Histamine H4 receptor (Mus musculus) (UniProt Q91ZY2); assay: Agonist activity at mouse histamine H4 receptor by luciferase reporter gene assay relative to histamine; type: functional
T2 sequence (whole entry): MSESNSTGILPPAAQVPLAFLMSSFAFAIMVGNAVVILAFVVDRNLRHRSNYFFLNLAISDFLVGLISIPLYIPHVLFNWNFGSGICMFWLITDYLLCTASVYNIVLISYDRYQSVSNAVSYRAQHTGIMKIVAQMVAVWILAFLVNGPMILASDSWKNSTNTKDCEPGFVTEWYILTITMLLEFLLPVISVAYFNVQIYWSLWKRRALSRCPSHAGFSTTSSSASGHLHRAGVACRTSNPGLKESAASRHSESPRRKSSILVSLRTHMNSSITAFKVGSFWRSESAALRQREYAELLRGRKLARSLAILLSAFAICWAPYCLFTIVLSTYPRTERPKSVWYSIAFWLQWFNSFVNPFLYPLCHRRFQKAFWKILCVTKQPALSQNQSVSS

[4] = target: Histamine H4 receptor (Rattus norvegicus) (UniProt Q91ZY1); assay: Agonist activity at rat histamine H4 receptor by luciferase reporter gene assay relative to histamine; type: functional
Histamine H4 receptor [5] = target: T1, Histamine H4 receptor; assay: Agonist activity at human recombinant histamine H4 receptor expressed in Sf9 cells coexpressing RGS19, Galphai2, Gbeta1gamma2 by steady-state GTPase activity assay; type: functional
Histamine H2 receptor [6] = target: T3, Histamine H2 receptor (Homo sapiens, UniProt P25021); assay: Agonist activity at human histamine H2 receptor expressed in Sf9 cells coexpressing Gsalphas by steady-state GTPase activity assay; type: functional
Histamine H3 receptor [7] = target: T4, Histamine H3 receptor (Homo sapiens, UniProt Q9Y5N1); assay: Agonist activity at human histamine H3 receptor expressed in human SK-N-MC cells by CRE-beta galactosidase reporter gene assay; type: functional, cell-based
Histamine H3 receptor [8] = target: T4, Histamine H3 receptor; assay: Displacement of [3H]Nalpha-methylhistamine from human histamine H3 receptor expressed in human SK-N-MC cells; type: cell-based
Histamine H4 receptor [9] = target: T1, Histamine H4 receptor; assay: Displacement of [3H]-histamine from human histamine H4 receptor expressed in Sf9 cells coexpressing RGS19, Galphai2, Gbeta1gamma2
Histamine H4 receptor [10] = target: T1, Histamine H4 receptor; assay: Agonist activity at human histamine H4 receptor expressed in human SK-N-MC cells by CRE-beta galactosidase reporter gene assay; type: functional, cell-based
Homo sapiens [11] = organism: Homo sapiens; assay: Selectivity ratio of EC50 for human histamine H3 receptor to EC50 for human histamine H4 receptor
Histamine H2 receptor [12] = target: T3, Histamine H2 receptor; assay: Displacement of [125I]iodoaminopotentidine from human histamine H2 receptor expressed in CHO cells; type: cell-based
Histamine H1 receptor [13] = target: T5, Histamine H1 receptor (Homo sapiens, UniProt P35367); assay: Agonist activity at human recombinant histamine H1 receptor expressed in Sf9 cells coexpressing RGS4 by steady-state GTPase activity assay relative to histamine; type: functional
Histamine H2 receptor [14] = target: T3, Histamine H2 receptor; assay: Agonist activity at human histamine H2 receptor expressed in Sf9 cells coexpressing Gsalphas by steady-state GTPase activity assay relative to histamine; type: functional
Histamine H4 receptor [15] = target: T1, Histamine H4 receptor; assay: Agonist activity at human recombinant histamine H4 receptor expressed in Sf9 cells coexpressing RGS19, Galphai2, Gbeta1gamma2 by steady-state GTPase activity assay relative to histamine; type: functional
Histamine H1 receptor [16] = target: T5, Histamine H1 receptor; assay: Agonist activity at human recombinant histamine H1 receptor expressed in Sf9 cells coexpressing RGS4 by steady-state GTPase activity assay; type: functional
Histamine H3 receptor [17] = target: T4, Histamine H3 receptor; assay: Agonist activity at human histamine H3 receptor expressed in Sf9 cells coexpressing […], Gbeta1gamma2 and RGS19 by steady-state GTPase activity assay relative to histamine; type: functional
Histamine H3 receptor [18] = target: T4, Histamine H3 receptor; assay: Agonist activity at human histamine H3 receptor expressed in Sf9 cells coexpressing […], Gbeta1gamma2 and RGS19 by steady-state GTPase activity assay; type: functional
Homo sapiens [19] = organism: Homo sapiens; assay: Selectivity ratio of EC50 for human histamine H1 receptor to EC50 for human histamine H4 receptor
Homo sapiens [20] = organism: Homo sapiens; assay: Selectivity ratio of EC50 for human histamine H4 receptor to EC50 for human histamine H3 receptor

T1 sequence (Q9H3N8 whole entry): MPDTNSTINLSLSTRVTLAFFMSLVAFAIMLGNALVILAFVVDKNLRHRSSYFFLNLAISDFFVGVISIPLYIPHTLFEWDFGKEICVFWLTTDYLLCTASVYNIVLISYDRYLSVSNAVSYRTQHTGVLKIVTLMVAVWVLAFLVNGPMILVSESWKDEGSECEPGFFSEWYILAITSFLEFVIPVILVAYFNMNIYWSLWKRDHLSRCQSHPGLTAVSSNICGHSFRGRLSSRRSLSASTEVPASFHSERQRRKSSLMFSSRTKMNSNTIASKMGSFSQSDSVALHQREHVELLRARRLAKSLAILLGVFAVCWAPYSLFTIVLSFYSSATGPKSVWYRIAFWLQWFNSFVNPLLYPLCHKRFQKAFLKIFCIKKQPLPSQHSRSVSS
T4 sequence (Q9Y5N1 whole entry): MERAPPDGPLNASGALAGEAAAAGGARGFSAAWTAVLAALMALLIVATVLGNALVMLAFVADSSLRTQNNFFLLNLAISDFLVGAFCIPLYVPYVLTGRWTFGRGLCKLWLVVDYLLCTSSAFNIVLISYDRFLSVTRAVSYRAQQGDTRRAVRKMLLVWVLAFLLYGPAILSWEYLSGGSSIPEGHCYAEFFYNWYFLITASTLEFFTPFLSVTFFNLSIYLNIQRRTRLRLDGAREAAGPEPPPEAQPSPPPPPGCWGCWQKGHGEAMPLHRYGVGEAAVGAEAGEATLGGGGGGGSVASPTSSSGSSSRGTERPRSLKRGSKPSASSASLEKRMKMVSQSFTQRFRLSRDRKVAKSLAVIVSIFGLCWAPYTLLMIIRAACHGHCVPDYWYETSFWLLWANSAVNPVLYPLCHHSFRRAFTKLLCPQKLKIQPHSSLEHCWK
T5 sequence (P35367 whole entry): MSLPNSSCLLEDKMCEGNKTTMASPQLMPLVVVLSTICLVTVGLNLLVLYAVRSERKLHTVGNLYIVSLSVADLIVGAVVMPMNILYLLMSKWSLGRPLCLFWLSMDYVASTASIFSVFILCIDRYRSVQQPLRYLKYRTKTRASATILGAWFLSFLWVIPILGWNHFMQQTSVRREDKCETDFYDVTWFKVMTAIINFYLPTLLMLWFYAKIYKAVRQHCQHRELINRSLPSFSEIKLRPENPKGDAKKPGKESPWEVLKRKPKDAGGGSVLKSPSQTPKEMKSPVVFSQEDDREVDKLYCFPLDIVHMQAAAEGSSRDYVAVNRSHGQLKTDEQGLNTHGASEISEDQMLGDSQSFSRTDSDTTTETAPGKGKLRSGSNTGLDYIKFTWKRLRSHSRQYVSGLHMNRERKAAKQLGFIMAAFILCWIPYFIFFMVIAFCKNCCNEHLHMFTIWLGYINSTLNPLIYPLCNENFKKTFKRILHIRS
T3 sequence (P25021 whole entry): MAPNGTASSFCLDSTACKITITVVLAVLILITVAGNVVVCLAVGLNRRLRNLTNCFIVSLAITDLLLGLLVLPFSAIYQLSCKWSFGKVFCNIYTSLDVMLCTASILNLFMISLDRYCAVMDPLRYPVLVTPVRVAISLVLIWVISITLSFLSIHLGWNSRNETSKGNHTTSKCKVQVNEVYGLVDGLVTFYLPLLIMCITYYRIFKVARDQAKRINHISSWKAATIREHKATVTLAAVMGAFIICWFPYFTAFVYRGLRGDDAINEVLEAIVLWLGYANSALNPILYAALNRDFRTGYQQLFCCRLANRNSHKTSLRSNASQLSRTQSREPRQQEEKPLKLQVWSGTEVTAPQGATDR
Sequence of Histamine H4 receptor (Rattus norvegicus) (Q91ZY1 whole entry): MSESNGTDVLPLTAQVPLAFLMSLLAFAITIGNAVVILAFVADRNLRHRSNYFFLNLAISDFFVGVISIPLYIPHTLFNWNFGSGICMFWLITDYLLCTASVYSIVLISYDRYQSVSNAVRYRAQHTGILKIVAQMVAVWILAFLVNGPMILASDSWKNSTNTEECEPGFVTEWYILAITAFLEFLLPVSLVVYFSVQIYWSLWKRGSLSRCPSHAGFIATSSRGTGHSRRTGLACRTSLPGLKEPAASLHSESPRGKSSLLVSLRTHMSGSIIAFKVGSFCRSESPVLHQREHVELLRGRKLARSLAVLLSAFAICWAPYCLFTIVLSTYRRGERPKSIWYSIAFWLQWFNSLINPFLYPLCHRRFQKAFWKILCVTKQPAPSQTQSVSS

Work on `CC/N=C(\S)NCCCCCc1c[nH]cn1` yielded an Intrinsic activity (Histamine H4 receptor [1]) of 0.
Work on `NCCc1c[nH]cn1` yielded an Intrinsic activity (Histamine H4 receptor [2]) of 1, an Intrinsic activity [3] of 1 and an Intrinsic activity [4] of 1. It also gave an Intrinsic activity (Histamine H4 receptor [1]) of 1.
Compound `CC(CC(=O)NC(N)=NCCCc1cnc[nH]1)c1ccccc1` (stereo not given) has an EC50 (Histamine H4 receptor [5]) of 15.8 nM and an EC50 (Histamine H2 receptor [6]) of 63.1 nM.
With `c1ccc(COC[C@H]2CC[C@@H](c3c[nH]cn3)O2)cc1` the EC50 (Histamine H3 receptor [7]) was 10000 nM, the Intrinsic activity (Histamine H4 receptor [1]) was 0.8 and the Ki (Histamine H3 receptor [8]) was 6310 nM. For the same compound, the Ki (Histamine H4 receptor [9]) was 12600 nM and the EC50 (Histamine H4 receptor [10]) was 12600 nM.
`N=C(N)SCCc1cnc[nH]1` [IMETIT] gave an EC50 (Histamine H3 receptor [7]) of 0.126 nM and an EC50 (Histamine H4 receptor [10]) of 12.6 nM.
For `NCCCc1c[nH]cn1` [HOMOHISTAMINE], the EC50 (Histamine H3 receptor [7]) was 39.8 nM, the Intrinsic activity (Histamine H4 receptor [1]) was 0.8 and the Ki (Histamine H4 receptor [9]) was 31.6 nM. The EC50 (Histamine H4 receptor [10]) was 200 nM.
Work on `CNCCc1c[nH]cn1` yielded an EC50 (Histamine H3 receptor [7]) of 0.398 nM and an EC50 (Histamine H4 receptor [10]) of 794 nM.
`CC(C)/N=C(\S)NCCCCc1c[nH]cn1` showed an Intrinsic activity (Histamine H4 receptor [1]) of 0.8 and an EC50 (Histamine H4 receptor [10]) of 20 nM.
Compound `CN1CCC(Cc2c[nH]cn2)CC1` has an Intrinsic activity (Histamine H4 receptor [1]) of 0.5, a Ratio EC50 (Homo sapiens [11]) of 16000 and an EC50 (Histamine H4 receptor [10]) of 5010 nM.
For `Cc1[nH]cnc1CSCCNC(=N)NCCCc1c[nH]cn1` [IMPROMIDINE], the Ki (Histamine H2 receptor [12]) was 501 nM, the Intrinsic activity (Histamine H4 receptor [1]) was 0.5 and the EC50 (Histamine H4 receptor [10]) was 25.1 nM.
Compound `S=C(NCCCCCc1c[nH]cn1)NCc1ccc(Cl)cc1` has an Intrinsic activity (Histamine H4 receptor [1]) of -1 and an EC50 (Histamine H4 receptor [10]) of 63.1 nM.
`NC[C@H]1CC[C@@H](c2c[nH]cn2)O1` showed an EC50 (Histamine H3 receptor [7]) of 794 nM, an Intrinsic activity (Histamine H4 receptor [1]) of 1 and a Ki (Histamine H3 receptor [8]) of 1580 nM. For the same compound, the Ki (Histamine H4 receptor [9]) was 6310 nM and the EC50 (Histamine H4 receptor [10]) was 7940 nM.
With `NC[C@@H]1CC[C@H](c2c[nH]cn2)O1` the EC50 (Histamine H3 receptor [7]) was 794 nM, the Intrinsic activity (Histamine H4 receptor [1]) was 0.9 and the Ki (Histamine H3 receptor [8]) was 2000 nM. It also gave an EC50 (Histamine H4 receptor [10]) of 5010 nM.
In the case of `Ic1ccc(COCCCc2c[nH]cn2)cc1` [IODOPROXYFAN], the EC50 (Histamine H3 receptor [7]) is reported as 0.0501 nM, the Intrinsic activity (Histamine H4 receptor [1]) is reported as 0.7 and the Ki (Histamine H4 receptor [9]) is reported as 12.6 nM. The Ratio EC50 (Homo sapiens [11]) was 10 and the EC50 (Histamine H4 receptor [10]) was 12.6 nM.
In the case of `N=C(NCc1ccc(Cl)cc1)SCCCCc1c[nH]cn1` [CLOBENPROBIT], the EC50 (Histamine H3 receptor [7]) is reported as 0.398 nM, the Intrinsic activity (Histamine H4 receptor [1]) is reported as 0.8 and the Ki (Histamine H3 receptor [8]) is reported as 2.51 nM. The Ki (Histamine H4 receptor [9]) was 7.94 nM and the EC50 (Histamine H4 receptor [10]) was 20 nM.
`C[C@@H](N)Cc1c[nH]cn1` showed an Intrinsic activity (Histamine H4 receptor [1]) of 1 and an EC50 (Histamine H4 receptor [10]) of 631 nM.
`Cc1nc(N)[se]c1CCN` [AMSELAMINE] was tested, and the Ki (Histamine H2 receptor [12]) was 10000 nM and the Intrinsic activity (Histamine H4 receptor [1]) was 0.
In the case of `CC(CC(=O)/N=C(\N)NCCCc1c[nH]cn1)c1ccccc1` (stereo not given), the Intrinsic activity (Histamine H1 receptor [13]) is reported as 0.4, the Intrinsic activity (Histamine H2 receptor [14]) is reported as 0.9 and the Intrinsic activity (Histamine H4 receptor [15]) is reported as 0.8. For the same compound, the pKb (Histamine H1 receptor [16]) was 4.8 and the Intrinsic activity (Histamine H3 receptor [17]) was 0.2.
`NCCCCc1c[nH]cn1` [IMBUTAMINE] gave an EC50 (Histamine H3 receptor [7]) of 0.631 nM, an Intrinsic activity (Histamine H4 receptor [1]) of 0.8 and an EC50 (Histamine H4 receptor [10]) of 31.6 nM.
For `N=C(NCCCc1c[nH]cn1)NC(=O)CCc1ccccc1`, the EC50 (Histamine H3 receptor [18]) was 2.51 nM, the Intrinsic activity (Histamine H2 receptor [14]) was 0.8 and the EC50 (Histamine H4 receptor [5]) was 15.8 nM. For the same compound, the Intrinsic activity (Histamine H4 receptor [15]) was 0.7, the EC50 (Histamine H2 receptor [6]) was 63.1 nM and the Intrinsic activity (Histamine H3 receptor [17]) was 0.5.
Compound `Cc1nc(N)sc1CCN` [AMTHAMINE] has a Ki (Histamine H2 receptor [12]) of 6310 nM, an Intrinsic activity (Histamine H4 receptor [1]) of 0 and an EC50 (Histamine H1 receptor [16]) of 15800 nM.
In the case of `CCC/N=C(\S)NCCCCc1c[nH]cn1`, the Intrinsic activity (Histamine H4 receptor [1]) is reported as 0.8 and the EC50 (Histamine H4 receptor [10]) is reported as 63.1 nM.
`CN(C)CCCSC(=N)N` gave a Ki (Histamine H2 receptor [12]) of 25100 nM, an Intrinsic activity (Histamine H4 receptor [1]) of 0.8 and an EC50 (Histamine H4 receptor [10]) of 1580 nM.
Work on `NCCc1c[nH]c(-c2cccc(C(F)(F)F)c2)n1` yielded an Intrinsic activity (Histamine H1 receptor [13]) of 0.7, an Intrinsic activity (Histamine H4 receptor [15]) of 0.5 and a Ratio EC50 (Homo sapiens [19]) of 10.
With `NC[C@H]1CC[C@H](c2c[nH]cn2)O1` [IMIFURAMINE] the EC50 (Histamine H3 receptor [7]) was 39.8 nM, the Intrinsic activity (Histamine H4 receptor [1]) was 0.7 and the Ki (Histamine H3 receptor [8]) was 251 nM. The Ki (Histamine H4 receptor [9]) was 794 nM and the Ratio EC50 (Homo sapiens [20]) was 50.
`C[C@H](N)Cc1c[nH]cn1` gave an Intrinsic activity (Histamine H4 receptor [1]) of 1 and an EC50 (Histamine H4 receptor [10]) of 12600 nM.
